test system: A431 cells; test: Assay for total NADH and NAD+ measurements in cells; assay type: cell-based; set-up: C: change in NAD levels in response to test compound, shown as % of NAD activity in the absence of test compound: concentration or dose not given beside the values; settings: percent of NAD level of untreated control cells (100 = no change)
Protocol: 2,000 cells/well and, at the same time, test compounds dissolved in media at the desired concentration were added to each well. The treated cells were incubated overnight in C02 incubator. The cells were washed 6 times with PBS with 1 mM CaCl2) and 1 mM MgCl2. In the last wash, 10 μL of PBS with 1 mM CaCl2) and 1 mM MgCl2 per well were left in each well. Immediately thereafter, 10 μL 0.4% dodecyltrimethylammonium bromide (DTAB) in phosphate buffer pH 8.0 as added, and the plates were shaked at 1000 rpm for 5 minutes. 60 μL reaction mix was added, and fluorescence at Ex/Em 530/585 was immediately monitored. A linear increase should be achieved with 8 cycles every 92 seconds, 10 number of flashes/well/cycle. The reaction mix was prepared per the following table, respecting the amount and order in which each component was added:
All assays were performed in A431 cells. Referring to the tables below, activity: “+” ≥25 μM, “++” ≥1 μM and <25 μM, and “+++”<1 μM.
In each table header, A: NAMPT enzyme inhibitory activity, IC50 (μM); B: Cellular NAD inhibitory activity, IC50 (μM); and C: change in NAD levels in response to test compound, shown as % of NAD activity in the absence of test compound. […] A percentage of 100 percent would indicate no increase or decrease in NAD levels as compared to that measured for untreated control cells, while a percentage of 50 percent would indicate a decrease in NAD levels of 50 percent as compared to that measured for untreated control cells.

In order of rising “C: change in NAD levels in response to test compound, shown as % of NAD activity in the absence of test compound” value:
1. CN(C)CCCNC(=O)Nc1ccc2nc(-c3ccc(F)cc3)c(-c3ccc(F)cc3)nc2c1 [BC19573]  11%
2. Fc1ccc(-c2nc3ccc(-c4nnco4)cc3nc2-c2ccc(F)cc2)cc1 [BC19250]  13%
3. CN1CCN(C(=O)c2ccc3nc(-c4ccc(OC(F)(F)F)cc4)c(-c4ccc(OC(F)(F)F)cc4)nc3c2)CC1 [BC19445]  14%
4. O=C(NCCN1CCOCC1)c1ccc2nc(-c3ccc(F)cc3)c(-c3ccc(F)cc3)nc2c1 [BC19237]  24%
5. O=C(NCc1ccncc1)Nc1ccc2nc(-c3ccc(F)cc3)c(-c3ccc(F)cc3)nc2c1 [BC19572]  26%
6. Fc1ccc(-c2nc3ccc(-c4cn(CCN5CCOCC5)nn4)cc3nc2-c2ccc(F)cc2)cc1 [BC19240]  27%
7. O=C(NCc1ccccn1)Nc1ccc2nc(-c3ccc(F)cc3)c(-c3ccc(F)cc3)nc2c1 [BC19570]  29%
8. Cn1nnnc1-c1ccc2nc(-c3ccc(F)cc3)c(-c3ccc(F)cc3)nc2c1 [BC19139]  29%
9. CN1CCN(CCNC(=O)Nc2ccc3nc(-c4ccc(F)cc4)c(-c4ccc(F)cc4)nc3c2)CC1 [BC19616]  31%
10. Cn1oc(-c2ccc3nc(-c4ccc(F)cc4)c(-c4ccc(F)cc4)nc3c2)cc1=O [BC19667]  38%
11. CN1CCN(Cc2ccc3nc(-c4ccc(F)cc4)c(-c4ccc(F)cc4)nc3c2)CC1 [BC19577]  41%
12. CN1CCN(c2ccc3nc(-c4ccc(F)cc4)c(-c4ccc(F)cc4)nc3c2)CC1 [BC19510]  41%
13. N=C(NO)c1ccc2nc(-c3ccc(F)cc3)c(-c3ccc(F)cc3)nc2c1 [BC19194]  45%
14. O=C(NCCN1CCOCC1)Nc1ccc2nc(-c3ccc(F)cc3)c(-c3ccc(F)cc3)nc2c1 [BC19567]  46%
15. COCC(=O)N1CCC(C(=O)Nc2ccc3nc(-c4ccc(F)cc4)c(-c4ccc(F)cc4)nc3c2)CC1 [BC19494]  52%
16. CN1CCN(C(=O)C2Cc3nc(-c4ccc(F)cc4)c(-c4ccc(F)cc4)nc3C2)CC1 [BC19723]  54%
17. CS(=O)(=O)N1CCC(C(=O)Nc2ccc3nc(-c4ccc(F)cc4)c(-c4ccc(F)cc4)nc3c2)CC1 [BC19312]  54%
18. CNc1ncc(-c2ccc3nc(-c4ccc(F)cc4)c(-c4ccc(F)cc4)nc3c2)o1 [BC19619]  55%
19. Cc1nnc(-c2ccc3nc(-c4ccc(F)cc4)c(-c4ccc(F)cc4)nc3c2)n1C [BC19301]  57%
20. O=C(NCC1CC1)Nc1ccc2nc(-c3ccc(F)cc3)c(-c3ccc(F)cc3)nc2c1 [BC19569]  57%
21. C#CCNC(=O)c1ccc2nc(-c3ccc(Cl)cc3)c(-c3ccc(Cl)cc3)nc2c1 [BC19451]  57%
22. O=C(NCCCN1CCCC1=O)Nc1ccc2nc(-c3ccc(F)cc3)c(-c3ccc(F)cc3)nc2c1 [BC19617]  58%
23. O=S(=O)(NCCN1CCOCC1)c1ccc2nc(-c3ccc(F)cc3)c(-c3ccc(F)cc3)nc2c1 [BC19504]  58%
24. Cc1nnc(-c2ccc3nc(-c4ccc(F)cc4)c(-c4ccc(F)cc4)nc3c2)o1 [BC19141]  62%
25. O=S(=O)(NCc1cccnc1)c1ccc2nc(-c3ccc(F)cc3)c(-c3ccc(F)cc3)nc2c1 [BC19557]  63%
26. C#CC(=O)Nc1ccc2nc(-c3ccc(F)cc3)c(-c3ccc(F)cc3)nc2c1 [BC19397]  65%
27. COCCNC(=O)Nc1ccc2nc(-c3ccc(F)cc3)c(-c3ccc(F)cc3)nc2c1 [BC19565]  65%
28. O=S(=O)(NCCCO)c1ccc2nc(-c3ccc(F)cc3)c(-c3ccc(F)cc3)nc2c1 [BC19509]  66%
29. Fc1ccc(-c2nc3ccc(-c4ccncc4)cc3nc2-c2ccc(F)cc2)cc1 [BC19245]  67%
30. CN1CCN(C(=O)c2ccc3nc(-c4ccc(F)cc4F)c(-c4ccccc4)nc3c2)CC1 [BC19405]  69%
31. CN1CCN(C(=O)c2cc3nc(-c4ccc(F)cc4)c(-c4ccc(F)cc4)nc3cn2)CC1 [BC19666]  70%
32. CN1CCN(C(=O)c2ccc3nc(-c4ccc(F)cc4)c(S(=O)(=O)c4cccc(F)c4)nc3c2)CC1 [BC19395]  71%
33. Fc1ccc(-c2nc3ccc(-c4cccnc4)cc3nc2-c2ccc(F)cc2)cc1 [BC19242]  72%
34. C#CCNC(=O)c1cccc2nc(-c3ccc(F)cc3)c(-c3ccc(F)cc3)nc12 [BC19321]  72%
35. CN1CCN(C(=O)c2cccc3nc(-c4ccc(F)cc4)c(-c4ccc(F)cc4)nc23)CC1 [BC19400]  76%
36. N#Cc1ccc2nc(-c3ccc(F)cc3)c(-c3ccc(F)cc3)nc2c1 [BC19192]  76%
37. Fc1ccc(-c2nc3ccc(-c4nncn4CCN4CCOCC4)cc3nc2-c2ccc(F)cc2)cc1 [BC19306]  76%
38. Cc1nc(C)c(-c2ccc3nc(-c4ccc(F)cc4)c(-c4ccc(F)cc4)nc3c2)s1 [BC19241]  79%
39. Fc1ccc(-c2nc3ccc(-c4nnc[nH]4)cc3nc2-c2ccc(F)cc2)cc1 [BC19143]  80%
40. O=C(Nc1ccc2nc(-c3ccc(F)cc3)c(-c3ccc(F)cc3)nc2c1)NC1CC1 [BC19568]  81%
41. C[C@H](Cl)C(=O)Nc1ccc2nc(-c3ccc(F)cc3)c(-c3ccc(F)cc3)nc2c1 [BC19315]  89%
42. Fc1ccc(-c2nc3ccc(-c4c[nH]nn4)cc3nc2-c2ccc(F)cc2)cc1 [BC19150]  89%
43. Cc1cnc(-c2ccc3nc(-c4ccc(F)cc4)c(-c4ccc(F)cc4)nc3c2)o1 [BC19140]  90%
44. C=CC(=O)Nc1ccc2nc(-c3ccc(F)cc3)c(-c3ccc(F)cc3)nc2c1 [BC19313]  91%
45. Cn1nnnc1-c1ccc2nc(-c3ccc(F)cc3)c(C(F)(F)F)nc2c1 [BC19152]  93%
46. CCCc1nnc(-c2ccc3nc(-c4ccc(F)cc4)c(-c4ccc(F)cc4)nc3c2)[nH]1 [BC19247]  94%
47. CN1CCN(C(=O)c2ccc3nc(-c4ccc(F)cc4)c(-c4cccs4)nc3c2)CC1 [BC19185]  94%
48. CN1CCN(C(=O)c2ccc3nc(C(F)(F)F)c(-c4cccc(F)c4)nc3c2)CC1 [BC19142]  94%
49. CCc1ccc(-c2nc3cc(C(=O)N4CCN(C)CC4)ccc3nc2-c2ccc(F)cc2)cc1 [BC19319]  95%
